Data on nine compounds can be found in PMC8985094, “Chemical constituents from Carica papaya Linn. leaves as potential cytotoxic, EGFR^wt and aromatase (CYP19A) inhibitors; a study supported by molecular docking” (RSC Advances, 2022).

Where two headings read alike, the source gives them in different places.

Assay [1] concerns the target EGFR^wt kinase (Homo sapiens, UniProt P00533). Kind of assay: EGFR^wt kinase inhibition assay (BPS Kinase Assay Kit, Kinase-Glo). Background: In Kinase-Glo more light means more ATP remaining.
Method: Then, the reaction was stopped by the addition of a detecting reagent (Kinase-Glo Max reagent), followed by incubation at room temperature for another 15 min. Finally, luminescence was measured using the microplate Robonik P2000 ELISA Reader.
In assay [2] the target is T1, aromatase (CYP19A) (Homo sapiens, UniProt P11511).
T1 construct: purchased Bio Vision
T1 sequence (P11511 1-503): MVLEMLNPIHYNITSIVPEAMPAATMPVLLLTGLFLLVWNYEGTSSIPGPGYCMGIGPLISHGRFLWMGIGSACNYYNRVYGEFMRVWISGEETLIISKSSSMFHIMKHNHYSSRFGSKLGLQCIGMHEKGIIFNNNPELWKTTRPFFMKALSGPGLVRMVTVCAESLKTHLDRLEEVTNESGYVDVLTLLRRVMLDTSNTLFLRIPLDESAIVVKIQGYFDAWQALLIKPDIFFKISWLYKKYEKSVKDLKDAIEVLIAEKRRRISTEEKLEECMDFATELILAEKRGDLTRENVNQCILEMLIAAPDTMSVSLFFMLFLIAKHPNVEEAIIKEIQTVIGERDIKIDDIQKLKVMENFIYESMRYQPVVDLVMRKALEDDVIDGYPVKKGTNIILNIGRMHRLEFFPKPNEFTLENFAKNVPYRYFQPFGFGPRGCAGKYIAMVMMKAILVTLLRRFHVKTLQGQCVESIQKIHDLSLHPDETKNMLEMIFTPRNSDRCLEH
Nature of the assay: Aromatase (CYP19A) inhibitor screening kit (fluorometric). The format is biochemical. The procedure: Breast cancer is mostly reliant on estrogen or progesterone, especially in postmenopausal females. […] Aromatase is the key enzyme that acts on androgen precursors for the synthesis of estrogen. Aromatase inhibitors are used to either block the production of estrogen or block the action of estrogen on its receptors and for treatment of estrogen dependant breast cancer.[32,33]
The compounds were dissolved in DMSO in concentrations ranging from 10 to 10^4 nM. The recombinant human aromatase stock was prepared according to the protocol and the samples were added and the plate was incubated for 10 min at 37 °C to allow tested compounds to interact with the aromatase.
(§1) Results are expressed as mean ± standard deviation (SD) based on triplicate experiments. The IC50 values of the tested compounds were determined using curve fitting in the R programming language and associated packages including Magrittr,[45] drc[46] and ggplot2.[47] Graphs and figures were generated using R console and PyMOL (PyMOL Molecular Graphics System, Schrödinger).

Assay [3] concerns MCF-7 cell line. Kind of assay: MTT cytotoxicity assay in breast cancer cell line (MCF-7). The format is cell-based. The note with it: Homo sapiens, read-out: IC50 on MCF-7 cell lines. The procedure: The cytotoxic effect of the isolated compounds from C. papaya on MCF-7 cells line was evaluated using MTT assay which measures metabolic activity as an indicator of cellular viability and proliferation.
Briefly, breast cancer cell line (MCF-7) were obtained from American Type Culture Collection and cultured in DMEM medium (Invitrogen/Life Technologies) supplemented with 10% FBS (Hyclone, USA). Insulin (10 μg mL^−1, Sigma-Aldrich, USA) and 1% penicillin–streptomycin. the cells were seeded in 96-well plates (VWR, Switzerland) at cell density 1.2–1.8 × 10^4 cells per well. […] After treatments, the medium was removed from all wells of the plate and 20 μL of the MTT reagent (Sigma-Aldrich, USA) (0.5 mg mL^−1) in PBS was added and incubated for 3.5 h at 37 °C. The solution was removed and 50 μL of DMSO was added, incubated for 5 min and the absorbance was measured at 570 nm.
as §1
On the technique in general: Tetrazolium assays rely on reduction of a dye to a coloured formazan, in cell work by metabolically active cells.

[4] abbreviates: in vitro enzymatic inhibition, recombinant human aromatase, mean ± SD, read-out: IC50 Aromatase.
[5] abbreviates: MCF7, MTT assay, 24 h treatment, mean ± SD.

EGFR^wt kinase, sequence (P00533 25-1210): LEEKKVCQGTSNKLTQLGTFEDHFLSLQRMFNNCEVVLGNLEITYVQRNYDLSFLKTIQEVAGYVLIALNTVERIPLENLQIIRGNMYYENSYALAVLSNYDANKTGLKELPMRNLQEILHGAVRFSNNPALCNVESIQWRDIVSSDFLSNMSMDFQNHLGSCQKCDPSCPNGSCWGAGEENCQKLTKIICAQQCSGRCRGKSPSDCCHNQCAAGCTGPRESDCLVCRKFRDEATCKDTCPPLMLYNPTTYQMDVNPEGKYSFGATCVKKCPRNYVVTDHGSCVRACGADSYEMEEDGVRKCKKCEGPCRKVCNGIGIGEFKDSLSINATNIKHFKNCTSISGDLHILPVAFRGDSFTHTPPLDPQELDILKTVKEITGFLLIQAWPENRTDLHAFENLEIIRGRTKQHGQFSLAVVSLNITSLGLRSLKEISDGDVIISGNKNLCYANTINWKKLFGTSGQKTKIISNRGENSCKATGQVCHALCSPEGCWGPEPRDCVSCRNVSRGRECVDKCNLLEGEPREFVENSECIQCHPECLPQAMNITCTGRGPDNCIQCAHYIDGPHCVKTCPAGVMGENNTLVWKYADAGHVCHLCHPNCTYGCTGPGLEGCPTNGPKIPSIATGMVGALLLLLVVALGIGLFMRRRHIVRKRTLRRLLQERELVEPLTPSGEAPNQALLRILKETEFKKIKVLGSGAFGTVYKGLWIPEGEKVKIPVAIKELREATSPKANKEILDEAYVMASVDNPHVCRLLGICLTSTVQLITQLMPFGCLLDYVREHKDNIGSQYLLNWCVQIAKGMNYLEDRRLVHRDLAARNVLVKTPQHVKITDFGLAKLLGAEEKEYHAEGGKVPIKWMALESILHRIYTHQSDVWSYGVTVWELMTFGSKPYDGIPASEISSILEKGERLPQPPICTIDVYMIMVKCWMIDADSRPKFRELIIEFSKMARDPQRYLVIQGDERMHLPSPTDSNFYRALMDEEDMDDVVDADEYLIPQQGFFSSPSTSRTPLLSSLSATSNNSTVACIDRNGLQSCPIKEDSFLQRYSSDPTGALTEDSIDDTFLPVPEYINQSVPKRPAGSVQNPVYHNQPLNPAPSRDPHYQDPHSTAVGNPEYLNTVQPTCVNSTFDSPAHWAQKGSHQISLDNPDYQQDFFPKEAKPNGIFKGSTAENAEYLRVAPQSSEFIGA

What is called IC50 is the concentration that inhibits the measured activity by half. Consider `C[C@@H]1O[C@@H](OC[C@H]2O[C@@H](Oc3c(-c4ccc(O)cc4)oc4cc(O)cc(O)c4c3=O)[C@H](O[C@@H]3O[C@@H](C)[C@H](O)[C@@H](O)[C@H]3O)[C@@H](O)[C@@H]2O)[C@H](O)[C@H](O)[C@H]1O` [Compound 5, kaempferol 3-O-(2′′,6′′-di-α-O-rhamnopyranosyl)-β-glucopyranoside], for which the IC50 was determined as 89.6 ± 4.6 nM in assay [1], 77.4 ± 4.53 nM in assay [2] (setting [4]) and 2470 ± 140 nM in assay [3] (setting [5]).

Turning to `COC(=O)c1cc(O)c(O)c(O)c1` [Compound 2, methyl gallate], the IC50 came to 37.3 ± 1.9 nM in assay [1], 94.1 ± 5.51 nM in assay [2] (setting [4]) and 1110 ± 60 nM in assay [3] (setting [5]).

As to `C[C@@H]1O[C@@H](OC[C@H]2O[C@@H](Oc3c(-c4ccc(O)cc4)oc4cc(O)cc(O)c4c3=O)[C@H](O)[C@@H](O)[C@@H]2O)[C@H](O)[C@H](O)[C@H]1O` [Compound 8, kaempferol-3-O-rutinoside], the figures for the IC50 in assay [1], in assay [2] (setting [4]) and in assay [3] (setting [5]) were 41.1 ± 2.1 nM, 92.8 ± 5.44 nM and 4940 ± 280 nM, respectively.

`CC1(C)C[C@H](O)C[C@@]2(C)OC(=O)C=C12` [Compound 3, loliolide]: the IC50 was 68.8 ± 3.5 nM in assay [1], 208 ± 12.2 nM in assay [2] (setting [4]) and 28200 ± 1610 nM in assay [3] (setting [5]).

Take `C[C@@H]1N[C@@H]2CCCCCCCC(=O)O[C@H]3CC[C@@H](CCCCCCCC(=O)O[C@H]1CC2)N[C@H]3C` [Compound 1, carpaine]: the half-maximal inhibitory concentration (IC50) is 47.6 ± 2.4 nM in assay [1]; 108 ± 6.32 nM in assay [2]; 13700 ± 780 nM in assay [3] (MCF7, 24 h).

As to `C[C@@H]1O[C@@H](OC[C@H]2O[C@@H](Oc3c(-c4ccc(O)c(O)c4)oc4cc(O)cc(O)c4c3=O)[C@H](O)[C@@H](O)[C@@H]2O)[C@H](O)[C@H](O)[C@H]1O` [Compound 4, quercetin-3-O-rutinoside], the half-maximal inhibitory concentration (IC50) in assay [1] worked out at 44.5 ± 2.3 nM; in assay [2] (setting [4]), 148 ± 8.64 nM; in assay [3] (setting [5]), 25600 ± 1460 nM.

Regarding `O=c1c(O[C@@H]2O[C@H](CO)[C@@H](O)[C@H](O)[C@H]2O)c(-c2ccc(O)c(O)c2)oc2cc(O)cc(O)c12` [Compound 7, quercetin-3-O-β-D-glucopyranoside], the IC50 is 83.4 ± 4.2 nM in assay [1], 354 ± 20.7 nM in assay [2] (setting [4]) and 13100 ± 750 nM in assay [3] (setting [5]).

Regarding `C[C@@H]1O[C@@H](O[C@H]2[C@H](Oc3c(-c4ccc(O)cc4)oc4cc(O)cc(O)c4c3=O)O[C@H](CO)[C@@H](O)[C@@H]2O)[C@H](O)[C@H](O)[C@H]1O` [Compound 6, kaempferol 3-O-(2′′-O-α-L-rhamnopyranosyl)-β-D-glucopyranoside], the half-maximal inhibitory concentration (IC50) amounted to 64.5 ± 3.3 nM in assay [1], 335 ± 19.6 nM in assay [2] (setting [4]) and 3580 ± 200 nM in assay [3] (setting [5]).

For `COc1cc(-c2oc3cc(O)cc(O)c3c(=O)c2OC2OC(CO)C(O)C(O)C2O)ccc1O` [Compound 9, isorhamnetin 3-O-β-D-glucopyranoside], the IC50 in assay [1] is 100 ± 5.1 nM; in assay [2] (setting [4]) it was 436 ± 25.6 nM; in assay [3] (setting [5]), 9510 ± 540 nM.
